# Laboratory results as given in patent US20040242870A1, “Antiviral methods and compounds” (priority 2000, published 2004).
# Read-outs that look alike come from different tables or passages of the source.
# Legend:
# PBMCs [1] = assay: PBMC apoptosis by flow cytometry (APO-BRDU kit); format: cell-based, Human
# Procedure: Flow cytometry studies were carried out on PHA/IL-2 induced PBMCs treated for 6 days with the various test compounds. Prior to flow cytometry the PBMCs were washed, counted and 1×10^6 cells resuspended in PBS and stained for CD4 or CD8 surface markers using anti-CD4.PE or CD8.PE (both from PharMingen) for 30 min at 4° C. The PBMC were then washed, fixed (Cytofix) and permeabilized (Cytoperm) followed by staining for apoptosis-related DNA damage. Initial experiments used the BrdU Flow Kit from PharMigen (2354KK). […] For both kits, manufacturers instructions were followed for staining and analysis of the samples. Following the appropriate staining protocol the cells were analyzed using a Becton Dickinson (Bedford, Mass.) FACSSort
# In another series of experiments, the IG compounds and cannabidiol treated cells were assessed for the induction of apoptosis (see Tables 8 and 9). […] As IL-2 is an essential component for maintaining the health of PHA induced PBMCs, a second focus of these studies focuses on the effect of the compounds in the absence of IL-2.
# HIV-1 = assay: HeLa CD4 LTR β-gal HIV-1 attachment assay; format: cell-based; conditions: for IC50: Human immunodeficiency virus 1, HeLa; for β-galactosidase production versus background: cells alone+compounds, at all times
# Procedure: The attachment assay was performed with the HeLa CD4 LTR , β-gal cells available from the AIDS Research and Reference Reagent Repository. […] HeLa CD4 LTR β-gal cells express cell surface CD4 and contain an LTR β-galactosidase reporter construct. Upon infection either the Tat protein incorporated into the virion or new Tat produced following virus integration and transcription trans-activates the LTR β-gal reporter, leading to expression of the β-galactosidase enzyme. HeLa CD4 LTR β-gal cells are routinely cultured with the required selection antibiotics and screened for mycoplasma contamination. Twenty-four h prior to initiation of the assay cells were trypsinized, counted and 1×10^4 cells placed in a 0.2 cm well in media without selection antibiotics. […] A known titer of virus was then added to the wells and the incubation continued for 1 h. At the end of the incubation the wells were washed 6 times with media and the culture continued for 48 h. At 48 h the wells were washed one time with PBS and β-galactosidase enzyme expression determined by chemiluminescence per manufacturers instructions (Tropix Gal-screen™, Tropix, Bedford, Mass.). Compound toxicity was monitored on sister plates using MTS dye reduction.
# PBMCs [2] = assay: Cell cycle analysis of PBMCs by flow cytometry; format: cell-based, Human
# Procedure: Flow cytometry studies were carried out on PHA/IL-2 induced PBMCs treated for 6 days with the various test compounds. Prior to flow cytometry the PBMCs were washed, counted and 1×10^6 cells resuspended in PBS and stained for CD4 or CD8 surface markers using anti-CD4.PE or CD8.PE (both from PharMingen) for 30 min at 4° C. The PBMC were then washed, fixed (Cytofix) and permeabilized (Cytoperm) followed by staining for apoptosis-related DNA damage. Initial experiments used the BrdU Flow Kit from PharMigen (2354KK). This kit with the appropriate software should have yielded percent apoptosis along with the number of cells in each phase of the cell cycle. However, we were not successful with this kit and subsequently used the data to look at only the distribution in the cell cycle of the PBMCs following drug treatment. We were successful in detecting apoptosis in PBMCs with the PharMingen APO-BRDU™ kit (6576KK). Using this kit, we were not able to co-stain for CD4 and CD8 due to the fluorescent tags used in the APO-BRDU™ kit. For both kits, manufacturers instructions were followed for staining and analysis of the samples. Following the appropriate staining protocol the cells were analyzed using a Becton Dickinson (Bedford, Mass.) FACSSort
# Experiments were conducted using flow cytometry to assess the effect of the IMG compounds and cannabidiol on induction of apoptosis. Briefly, compound-treated PBMCs were assayed for apoptosis using a BrdU methodology. Table 6 summarizes the effects of the IMG Compounds on cell cycle and cell viability by Trypan Blue Dye exclusion. Table 7 reduces the changes in the cell cycle to a ratio based upon the percent of cells in G2-G1. G2-G1 cells represent transition cells that are in either G2 or G1, that cannot be distinguished based upon DNA content by flow cytometry. […] This ratio cannot be used as a quantitative factor to measure fold-increases or decreases between population, but rather to access trends in the cell cycle.
# [3] = IL-2 supplemented media, 15 μM, HIV +
# [4] = IL-2 supplemented media, 15 μM, HIV −
# [5] = IL-2 supplemented media, 30 μM, HIV +
# [6] = IL-2 supplemented media, 30 μM, HIV −
# [7] = Experiment 1, pretreat 4 h, read-out: IC50
# [8] = Experiment 1, pretreat 24 h, read-out: IC50
# [9] = Experiment 2, pretreat 4 h, read-out: IC50
# [10] = Experiment 2, pretreat 24 h, read-out: IC50
# [11] = IL-2 supplemented media, 50 μM, HIV +
# [12] = IL-2 supplemented media, 50 μM, HIV −
# [13] = IL-2 supplemented media, 100 μM, HIV +
# [14] = IL-2 supplemented media, 100 μM, HIV −
smiles,measurement,setting,value
"CC(C)=CCCC1(C)CCc2c(O)cc(C(C)(C)CCCC(C)C)cc2O1 (centres unmarked) [IG-08, 3,4-Dihydro-2-methyl-2-(4-methyl-3-pentenyl)-7-(1,1,5-trimethylhexyl)-2H-1-benzopyran-5-ol]",% Apoptosis,"PBMCs [1]; IL-2 deficient media, 15 μM, HIV +",29%
same,% Apoptosis,"PBMCs [1]; IL-2 deficient media, 15 μM, HIV −",18.4%
same,% Apoptosis,"PBMCs [1]; IL-2 deficient media, 30 μM, HIV +",13.8%
same,% Apoptosis,"PBMCs [1]; IL-2 deficient media, 30 μM, HIV −",11.7%
same,% Apoptosis,PBMCs [1]; [3],19.3%
same,Fold Change,PBMCs [1]; [3],1.2
same,% Apoptosis,PBMCs [1]; [4],17.3%
same,Fold Change,PBMCs [1]; [4],1.2
same,% Apoptosis,PBMCs [1]; [5],32.1%
same,Fold Change,PBMCs [1]; [5],2
same,% Apoptosis,PBMCs [1]; [6],27.5%
same,Fold Change,PBMCs [1]; [6],2.3
same,IC50,"HIV-1; Experiment 1, pretreat 0 h",16 µM
same,IC50,HIV-1; [7],10.8 µM
same,IC50,HIV-1; [8],7.4 µM
same,IC50,"HIV-1; Experiment 2, pretreat 0 h",0.9 µM
same,IC50,HIV-1; [9],11 µM
same,IC50,HIV-1; [10],2.6 µM
same,β-galactosidase production versus background,HIV-1,suppressed β-galactosidase production below background
same,Comment: suppression of β-galactosidase activity,HIV-1; pretreat 0 h,Suppression of μ-galactosidase
same,Comment: suppression of β-galactosidase activity,HIV-1; pretreat 4 h,Suppression of μ-galactosidase
same,Comment: suppression of β-galactosidase activity,HIV-1; pretreat 24 h,Suppression of μ-galactosidase
same,% 7-AAD positive per cell cycle phase G0-G1,"PBMCs [2]; 15 μM, HIV +",98%
same,% 7-AAD positive per cell cycle phase G2-G1,"PBMCs [2]; 15 μM, HIV +",2%
same,% 7-AAD positive per cell cycle phase G2-M,"PBMCs [2]; 15 μM, HIV +",0.08%
same,% of cells in cell cycle phase,"PBMCs [2]; 15 μM, HIV +",2.4%
same,% 7-AAD positive per cell cycle phase G0-G1,"PBMCs [2]; 15 μM, HIV −",91%
same,% 7-AAD positive per cell cycle phase G2-G1,"PBMCs [2]; 15 μM, HIV −",2%
same,% 7-AAD positive per cell cycle phase G2-M,"PBMCs [2]; 15 μM, HIV −",8.7%
same,% of cells in cell cycle phase,"PBMCs [2]; 15 μM, HIV −",0%
same,% 7-AAD positive per cell cycle phase G0-G1,"PBMCs [2]; 30 μM, HIV +",99%
same,% 7-AAD positive per cell cycle phase G2-G1,"PBMCs [2]; 30 μM, HIV +",2%
same,% 7-AAD positive per cell cycle phase G2-M,"PBMCs [2]; 30 μM, HIV +",0.15%
same,% of cells in cell cycle phase,"PBMCs [2]; 30 μM, HIV +",0.9%
same,% 7-AAD positive per cell cycle phase G0-G1,"PBMCs [2]; 30 μM, HIV −",98%
same,% 7-AAD positive per cell cycle phase G2-G1,"PBMCs [2]; 30 μM, HIV −",2%
same,% 7-AAD positive per cell cycle phase G2-M,"PBMCs [2]; 30 μM, HIV −",0.6%
same,% of cells in cell cycle phase,"PBMCs [2]; 30 μM, HIV −",1%
"C=C(C)[C@@H]1CCC(C)=C[C@H]1c1c(O)cc(CCCCC)cc1O [Cannabidiol, reference compound]",% Apoptosis,PBMCs [1]; [3],20.0%
same,Fold Change,PBMCs [1]; [3],1.2
same,% Apoptosis,PBMCs [1]; [4],20.5%
same,Fold Change,PBMCs [1]; [4],1.7
same,% Apoptosis,PBMCs [1]; [5],74%
same,Fold Change,PBMCs [1]; [5],4.6
same,% Apoptosis,PBMCs [1]; [6],22%
same,Fold Change,PBMCs [1]; [6],1.8
same,β-galactosidase production versus background,HIV-1,suppressed β-galactosidase production below background
same,% 7-AAD positive per cell cycle phase G0-G1,"PBMCs [2]; 1 μM, HIV +",94%
same,% 7-AAD positive per cell cycle phase G2-G1,"PBMCs [2]; 1 μM, HIV +",2%
same,% 7-AAD positive per cell cycle phase G2-M,"PBMCs [2]; 1 μM, HIV +",5.7%
same,% of cells in cell cycle phase,"PBMCs [2]; 1 μM, HIV +",0%
same,% 7-AAD positive per cell cycle phase G0-G1,"PBMCs [2]; 1 μM, HIV −",91%
same,% 7-AAD positive per cell cycle phase G2-G1,"PBMCs [2]; 1 μM, HIV −",2%
same,% 7-AAD positive per cell cycle phase G2-M,"PBMCs [2]; 1 μM, HIV −",9.2%
same,% of cells in cell cycle phase,"PBMCs [2]; 1 μM, HIV −",0%
same,% 7-AAD positive per cell cycle phase G0-G1,"PBMCs [2]; 25 μM, HIV +",96%
same,% 7-AAD positive per cell cycle phase G2-G1,"PBMCs [2]; 25 μM, HIV +",2%
same,% 7-AAD positive per cell cycle phase G2-M,"PBMCs [2]; 25 μM, HIV +",0%
same,% of cells in cell cycle phase,"PBMCs [2]; 25 μM, HIV +",4.2%
same,% 7-AAD positive per cell cycle phase G0-G1,"PBMCs [2]; 25 μM, HIV −",96.4%
same,% 7-AAD positive per cell cycle phase G2-G1,"PBMCs [2]; 25 μM, HIV −",2%
same,% 7-AAD positive per cell cycle phase G2-M,"PBMCs [2]; 25 μM, HIV −",0.05%
same,% of cells in cell cycle phase,"PBMCs [2]; 25 μM, HIV −",3.6%
same,% 7-AAD positive per cell cycle phase G0-G1,"PBMCs [2]; 35 μM, HIV +",98%
same,% 7-AAD positive per cell cycle phase G2-G1,"PBMCs [2]; 35 μM, HIV +",2%
same,% 7-AAD positive per cell cycle phase G2-M,"PBMCs [2]; 35 μM, HIV +",0%
same,% of cells in cell cycle phase,"PBMCs [2]; 35 μM, HIV +",2.6%
same,% 7-AAD positive per cell cycle phase G0-G1,"PBMCs [2]; 35 μM, HIV −",95.5%
same,% 7-AAD positive per cell cycle phase G2-G1,"PBMCs [2]; 35 μM, HIV −",2%
same,% 7-AAD positive per cell cycle phase G2-M,"PBMCs [2]; 35 μM, HIV −",0%
same,% of cells in cell cycle phase,"PBMCs [2]; 35 μM, HIV −",4.5%
"COc1cc(C(C)(C)CCCC(C)C)cc(OC)c1OC [IG-07, 1-(1,1,5Trimethylhexyl)-3,4,5-trimethoxybenzene]",% Apoptosis,"PBMCs [1]; IL-2 deficient media, 50 μM, HIV +",32.6%
same,% Apoptosis,"PBMCs [1]; IL-2 deficient media, 50 μM, HIV −",27%
same,% Apoptosis,"PBMCs [1]; IL-2 deficient media, 100 μM, HIV +",64%
same,% Apoptosis,"PBMCs [1]; IL-2 deficient media, 100 μM, HIV −",54%
same,% Apoptosis,PBMCs [1]; [11],16%
same,Fold Change,PBMCs [1]; [11],1
same,% Apoptosis,PBMCs [1]; [12],14.4%
same,Fold Change,PBMCs [1]; [12],1.2
same,% Apoptosis,PBMCs [1]; [13],22.5%
same,Fold Change,PBMCs [1]; [13],1.4
same,% Apoptosis,PBMCs [1]; [14],22.8%
same,Fold Change,PBMCs [1]; [14],2
same,IC50,"HIV-1; Experiment 1, pretreat 0 h, read-out: IC50",> 50 µM
same,IC50,HIV-1; [7],> 50 µM
same,IC50,HIV-1; [8],> 50 µM
same,IC50,"HIV-1; Experiment 2, pretreat 0 h, read-out: IC50",16 µM
same,IC50,HIV-1; [9],> 50 µM
same,IC50,HIV-1; [10],> 50 µM
same,transient suppression of virus replication,"HIV-1; at lower concentrations of compounds, two independent experiments",observed consistently
same,β-galactosidase production versus background,HIV-1,suppressed β-galactosidase production below background
same,% 7-AAD positive per cell cycle phase G0-G1,"PBMCs [2]; 5 μM, HIV +",89%
same,% 7-AAD positive per cell cycle phase G2-G1,"PBMCs [2]; 5 μM, HIV +",2%
same,% 7-AAD positive per cell cycle phase G2-M,"PBMCs [2]; 5 μM, HIV +",10%
same,% of cells in cell cycle phase,"PBMCs [2]; 5 μM, HIV +",0%
same,% 7-AAD positive per cell cycle phase G0-G1,"PBMCs [2]; 5 μM, HIV −",89%
same,% 7-AAD positive per cell cycle phase G2-G1,"PBMCs [2]; 5 μM, HIV −",2%
same,% 7-AAD positive per cell cycle phase G2-M,"PBMCs [2]; 5 μM, HIV −",6.9%
same,% of cells in cell cycle phase,"PBMCs [2]; 5 μM, HIV −",0%
same,% 7-AAD positive per cell cycle phase G0-G1,"PBMCs [2]; 100 μM, HIV +",95%
same,% 7-AAD positive per cell cycle phase G2-G1,"PBMCs [2]; 100 μM, HIV +",2%
same,% 7-AAD positive per cell cycle phase G2-M,"PBMCs [2]; 100 μM, HIV +",3.1%
same,% of cells in cell cycle phase,"PBMCs [2]; 100 μM, HIV +",1.7%
same,% 7-AAD positive per cell cycle phase G0-G1,"PBMCs [2]; 100 μM, HIV −",94%
same,% 7-AAD positive per cell cycle phase G2-G1,"PBMCs [2]; 100 μM, HIV −",2%
same,% 7-AAD positive per cell cycle phase G2-M,"PBMCs [2]; 100 μM, HIV −",0.2%
same,% of cells in cell cycle phase,"PBMCs [2]; 100 μM, HIV −",6%
